The test addresses T1, androgen receptor (Homo sapiens, UniProt P10275, Q868H).
T1 construct: a human breast tumor cell line expressing androgen receptor; endogenous in cells; host or cells: MDA-MB453-MMTV clone 54-19 (only the MMTV-luciferase reporter was transfected)
T1 sequence (P10275 1-920 Q868H): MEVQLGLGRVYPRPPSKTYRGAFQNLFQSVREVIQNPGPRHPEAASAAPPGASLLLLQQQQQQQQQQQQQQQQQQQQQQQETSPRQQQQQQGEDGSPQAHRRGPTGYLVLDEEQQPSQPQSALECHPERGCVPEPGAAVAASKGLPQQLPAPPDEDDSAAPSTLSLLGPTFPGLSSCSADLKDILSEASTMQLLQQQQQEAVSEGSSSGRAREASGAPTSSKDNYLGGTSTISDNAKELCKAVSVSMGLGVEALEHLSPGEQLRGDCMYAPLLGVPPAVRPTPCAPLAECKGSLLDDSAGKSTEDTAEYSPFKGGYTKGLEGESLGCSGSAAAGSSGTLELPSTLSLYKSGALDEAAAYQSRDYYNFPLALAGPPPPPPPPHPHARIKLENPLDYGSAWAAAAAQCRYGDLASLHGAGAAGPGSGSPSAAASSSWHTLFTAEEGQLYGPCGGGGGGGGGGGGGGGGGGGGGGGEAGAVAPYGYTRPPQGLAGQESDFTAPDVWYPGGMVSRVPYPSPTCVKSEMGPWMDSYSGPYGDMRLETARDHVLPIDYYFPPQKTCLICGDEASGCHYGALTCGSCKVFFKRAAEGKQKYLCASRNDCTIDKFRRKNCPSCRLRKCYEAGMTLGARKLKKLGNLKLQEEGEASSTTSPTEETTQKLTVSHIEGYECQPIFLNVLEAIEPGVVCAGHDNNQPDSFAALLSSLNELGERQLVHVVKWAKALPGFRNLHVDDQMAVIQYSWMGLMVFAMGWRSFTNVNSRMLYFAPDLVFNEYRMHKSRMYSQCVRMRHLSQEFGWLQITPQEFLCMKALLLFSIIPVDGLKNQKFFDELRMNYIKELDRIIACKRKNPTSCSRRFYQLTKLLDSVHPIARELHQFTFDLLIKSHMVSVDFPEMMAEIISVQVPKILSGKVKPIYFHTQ
Description: AR antagonist cell assay (MDA-MB453-MMTV clone 54-19, luciferase reporter). The class given is cell-based. Particulars: 100 pM DHT, 17 hr, mean of multiple tests. Here is the method:
The compounds ability to antagonize the effects of androgen on the androgen receptor were determined in a whole cell assay as described immediately below.
Experimental Procedure for AR Antagonist Cell Assay
This cell line is a stable transfected cell line with MDA-MB453 cell background (a human breast tumor cell line expressing androgen receptor). A MMTV minimal promoter containing ARE was first cloned in front of a firefly luciferase reporter gene. Then the cascade was cloned into transfection vector pUV120puro. Electroporation method was used for transfecting MDA-MB-453 cell. Puromycin resistant stable cell line was selected.
Cell Culture Media and Reagents:
Culture medium: DMEM (high glucose, Gibco cat #: 11960-044), 10% FBS, and 1% L-glutamine
Plating medium: DMEM (phenol red free), 10% charcoal treated HyClone serum, 1% L-glutamine
Assay medium: DMEM (phenol red free), 1% charcoal treated HyClone serum, 1% L-glutamine, and 1% penicillin/streptomycin
3× luciferase buffer: 2% beta-mercaptoethanol, 0.6% ATP, 0.0135% luciferine in cell lysis buffer
• 1. Cells are maintained in culture medium, splitting cells when they reach 80-90% confluence • 2. To test compounds, 10,000 cells/well are plated to opaque 96 cell culture plate in 100 ul/well plating medium, culture for overnight at 37° C. in cell culture incubator • 3. Carefully remove plating medium, then add 80 ul/well of pre-warmed assay medium, add 10 ul/well testing compound (final concentration at) 1000 nM, 200 nM, 40 nM, 8 nM, 1.6 nM, and 0.32 nM), incubate at 37° C. for 30 minutes • 4. Add 10 ul/well freshly prepared DHT (final concentration at 100 pM) to each well, incubate at 37° C. for 17 hr (overnight) • 5.
The results are reported as the mean of multiple tests as described below (the numbers of tests are indicated in the footnote). N.D. denotes that the compound was not tested.

Where [1] appears, read: AR Cell IC50, MDA-MB453-MMTV clone 54-19 cells.

SMILES strings stand for the structures. Read-outs that look alike come from different tables or passages of the source.

Compound `N#Cc1ccc(O[C@@H]2CCCC[C@H]2C#N)cc1C(F)(F)F` (single isomer, unassigned) [Example 72, (trans)-(−)-4-(2-Cyano-cyclohexyloxy)-2-trifluoromethyl-benzonitrile] yielded an IC50 under setting [1] of 12 nM. As for `N#Cc1ccc(O[C@@H]2CCCCC2C#N)cc1C(F)(F)F` (stereo in doubt) [Example 14, -4-(2-Cyano-cyclohexyloxy)-2-trifluoromethyl-benzonitrile], the midpoint of inhibition under setting [1], the IC50, lay at 13 nM. In the case of `CC1CCCCC1Oc1ccc(C#N)c(C(F)(F)F)c1` (stereo not drawn) [Example 8, 4-(2-Methyl-cyclohexyloxy)-2-trifluoromethyl-benzonitrile], under “MDA-MB453-MMTV clone 54-19 cells, read-out: AR Cell IC50”, the IC50 was 494 nM.

The record behind these values is US7670613B2, “Androgen modulators” (Pfizer Inc., priority 2004, dated 2010).
